According to patent publication US7749526B2, “Vermin-repellant compositions and compounds” (Novartis AG, priority 2002, dated 2010):

Experiments:
[1] = test system: ticks of the genus Ixodes ricinus; experiment: In-vivo comparison on dogs of anti-tick action following spray application; details: Beagle dogs; for anti-tick activity in the course of 3 successive days (in words): single spray application
Description: In-vivo comparison on dogs in respect of the anti-tick action of 2-propyl-pentanoic acid-bis-(2-methoxyethyl)-amide according to the present invention with DEET (in the form of PARAPIC DOG® (a tick repellent containing DEET)) following spray application.
The following formulations of active ingredient are used in the test which follows: […]
Prior art composition of the Parapic anti-tick spray: • active substance: 15% N,N-Diethyl-3-methylbenzamide (DEET); 15% • ethylbutylacetylaminopropionate (EBMP), isopropanol, methacrylic acid copolymer, carbamide, fragrance (perfume).
Inventive composition of the 2-propyl-pentanoic acid-bis-(2-methoxyethyl )-amide spray: active substance: 2-propyl-pentanoic acid-bis-(2-methoxyethyl )-amide 4.5%; Pluronic F6® 2.0%; water 10.0%, isopropanol ad 100.0%.
The aim of the test is to make a comparison, under natural conditions, of the commercially available anti-vermin product Parapic Dog® with a typical representative of a compound of formula (I), namely 2-propyl-pentanoic acid-bis-(2-methoxyethyl)-amide. According to the packaging information one should reach with Parapic Dog® an 80% anti-tick protection over a period of 48 hours. The active ingredient of Parapic Dog® is DEET, which is the chemical substance N,N-Diethyl-3-methylbenzamide. Products based on the active ingredient DEET, such as Parapic Dog® are widely used against ticks on dogs and cats, and also on humans. Actually, the majority of the currently used anti-tick products is based on DEET, and the mostly used product in dogs is said Parapic Dog®.
Test Protocol: 12 Beagle dogs are divided into groups of 4. To distinguish them, each dog is given a numbered label. Group 1 is treated with a 4.5% 2-propyl-pentanoic acid-bis-(2-methoxy-ethyl)-amide spray (3645mg a.i./m^2). Group 2 is treated with Parapic Dog®-Spray ([…] DEET/3645 mg a.i./m^2). Group 3 remains untreated and serves as a control.
All twelve dogs are taken on 3 successive days to a wooded plot infected with ticks of the genus Ixodes ricinus and are left to run around there. They are free to move around there for 2 hours. An evaluation is made directly after returning from the wood. The two-hour walks are repeated on the next 2 days without the dogs being treated again, and the evaluation is again made directly after returning from the wood. This is effected by carefully searching the fur and the skin of each animal for ticks adhered thereto. The ticks are counted and compared with the number of ticks in the control group.

vermin = details: volatilizes rather rapidly; cited from earlier work
[2] = test system: Boophilus microplus Biarra (larvae); experiment: Arena test in vitro against Boophilus microplus Biarra (larvae); details: even up to a dilution of 3.2 μg/cm^2
Protocol: (§1) This method is carried out in titre plates having 6 wells with a cross-section of 5 cm each, using a computer-supported video system. Each well of the titre plate is lined with a circular filter paper or another suitable carrier material. The substance of formula (I) to be tested is dissolved in methanol, acetonitrile or another suitable solvent, with ultrasound treatment and heating being employed for poorly-soluble substances. In an amount of 1 to 100 μg/cm^2, the dissolved test substance is placed in the centre of the filter paper on a quadrant or circular area of ca. 2.4 cm^2 radius. 4 of the 6 wells are filled with different test substances or with the same test substance in different dilutions (e.g. 1, 3.2, 5, 10 and 20 μg/cm^2) The 5th well is treated with DEET (N,N-diethyl-m-toluamide) as standard substance. The 6th well is filled with the pure solvent and serves as a control. […] In this way, neutral and repellent substances are determined. At the same time, the duration of activity of the test substance is determined and compared with that of the standard. […] This frequency is evaluated statistically and thus quantitatively by the Willcoxon method in a comparison with the control and with the standard. […]

[3] = test system: Rhipicephalus sanguineus (nymphs); experiment: Arena test in vitro against Rhipicephalus sanguineus (nymphs); details: even up to a dilution of 3.2 μg/cm^2
Protocol: as §1

[4] = test system: Amblyomma hebraeum or variegatum (nymphs); experiment: Arena test in vitro against Amblyomma hebraeum or variegatum (nymphs); details: even up to a dilution of 3.2 μg/cm^2
Protocol: as §1

[5] = test system: parasite to be tested, e.g. ticks; experiment: Arena test method for testing vermin-repellent substances; details: 1 to 100 μg/cm^2 on filter paper; video evaluation versus control and DEET standard
Protocol: Arena Test Method for Testing Vermin-repellent Substances
This method is carried out in titre plates having 6 wells with a cross-section of 5 cm each, using a computer-supported video system. Each well of the titre plate is lined with a circular filter paper or another suitable carrier material. The substance of formula (I) to be tested is dissolved in methanol, acetonitrile or another suitable solvent, with ultrasound treatment and heating being employed for poorly-soluble substances. In an amount of 1 to 100 μg/cm^2, the dissolved test substance is placed in the centre of the filter paper on a quadrant or circular area of ca. 2.4 cm^2 radius. 4 of the 6 wells are filled with different test substances or with the same test substance in different dilutions (e.g. 1, 3.2, 5, 10 and 20 μg/cm^2) The 5th well is treated with DEET (N,N-diethyl-m-toluamide) as standard substance. The 6th well is filled with the pure solvent and serves as a control. […]
At intervals of 5 seconds, the video camera takes individual pictures of all 6 wells. […] In this way, neutral and repellent substances are determined. At the same time, the duration of activity of the test substance is determined and compared with that of the standard. […] This frequency is evaluated statistically and thus quantitatively by the Willcoxon method in a comparison with the control and with the standard. […]

Compound | anti-tick activity in the course of 3 successive days (in words) [1] | time after which reapplication is needed (vermin) | long-term action against Boophilus larvae [2] | anti-tick action after 1 day ([1]; single spray application 3645 mg a.i./m^2, 2 hour walk in tick-infested wood, versus untreated control, after 1 day) [%] | anti-tick action after 2 days ([1]; single spray application 3645 mg a.i./m^2, 2 hour walk in tick-infested wood, versus untreated control, after 2 days) [%] | anti-tick action after 3 days ([1]; single spray application 3645 mg a.i./m^2, 2 hour walk in tick-infested wood, versus untreated control, after 3 days) [%] | long-term action against Rhipicephalus sanguineus nymphs [3] | long-term action against Amblyomma nymphs [4] | repellent activity in arena test [5]
CCN(CC)C(=O)c1cccc(C)c1 [DEET, N,N-diethyl-m-toluamide, reference compound] | drops abruptly after 2 days | ca. 2 hours | – | – | – | – | – | – | –
CCCC(CCC)C(=O)N(CCOC)CCOC [Compound no. 1.31, 2-propyl-pentanoic acid-bis-(2-methoxyethyl)-amide] | very good results | – | especially marked long-term action | 100 | 98 | 79 | especially marked long-term action | especially marked long-term action | particularly active
